Ends that are not written are not given here.

For series [1] the following is noted: cited from earlier work.
The conditions of series [2]: cited from earlier work. This is another data set of the same source.
For series [3] the following is noted: alone; cited from earlier work.
Series [4] has as its system 5637 cells. Put plainly: Proliferation assay in PPARG-amplified 5637 cells. The format is cell-based. Particulars: Homo sapiens; data not shown. The procedure:
To determine if treatment of PPARG-activated bladder cancer cell lines with PPARG modulators impacted viability, a variety of compounds were tested in proliferation assays.

The test system of series [5] is UM-UC-9 cells. Put plainly: Direct cell counting dose-response proliferation assay. The format is cell-based, human. The method, then: To determine whether PPARG modulators affect the proliferation and/or viability of PPARG-activated bladder cancer cell lines, a direct cell counting-based assay was performed. This assay likely avoids potential artifacts associated with the use of an ATP content-based assay, given that PPAR modulators are known to regulate cellular metabolic activity. […] These IC50 values align well with the calculated IC50s from both the cell-based reporter gene assay (FIG. 8A) and the biochemical corepressor assay (FIG. 8D).
(§1) Proliferation Assays: To enable cell-counting experiments, cell lines were transduced with a lentiviral vector encoding nuclear-targeted GFP, TagGFP2-H2B (Evrogen), and stable pools generated following selection for puromycin resistance. Cell lines were maintained for at least 7 days following selection prior to expansion and seeding into 96- or 384-well plates for further analysis. For kinetic proliferation assays, 96-well plates (n 1% 4 per condition) were imaged and counted every two hours using IncuCyte Zoom (Essen BioScience). Media and compounds were replaced approximately every 3-4 days. For endpoint assays to measure dose-response, cells were plated in 384-well plates, dosed with compound, and upon reaching approximately 70% to 90% confluence in control wells, cells were either counted using fluorescence imaging (Incu-Cyte Zoom) or incubated with CyQuant (Thermo Fisher) at the indicated time and plates were read with a fluorescent plate reader.

For series [6], the system named is FABP4 expression. The series can be described thus: Immunoblot of FABP4 in bladder cancer cell lines. The class given is cell-based, human. Particulars: panel of bladder cancer cell lines. The method, then:
Western Blot Analysis: Western blots were performed using standard protocols with semi-dry transfer Trans-Blot® SD (Bio-Rad Hercules, CA), Li-Cor Odyssey Blocking buffer, and imaging with LiCor Odyssey Imaging System (LI-COR Lincoln, NE). Briefly, cells were grown in 6-well plates and harvested using Complete Lysis-M with protease and phosphatase inhibitors (Roche Applied Science). Western blot analyses were performed using standard protocols with semi-dry transfer Trans-Blot SD (Bio-Rad), LI-COR Odyssey Blocking buffer, and imaging with LI-COR Odyssey Imaging System (LI-COR). The anti-PPARG C26H12, anti-PPARG 81B8, anti-FABP4 D25B3, and anti-CEACAM5 CB30 antibodies were obtained from Cell Signaling Technology. The anti-ACSL5 ab57210 and anti-HMCGS2 EPR8642 antibodies were obtained from Abcam. The anti-VCL (vinculin) V9264 antibody was obtained from Sigma-Aldrich. All primary antibodies were tested at 1:1,000 dilutions, with the exception of anti-VCL, which was tested at a 1:5,000 dilution. Secondary goat anti-mouse 926-68020, and goat-anti-rabbit 926-32211 antibodies were obtained from LI-COR Biosciences and used at 1:15,000 dilutions.

In series [7] the target is T1, PPARA (Homo sapiens, UniProt Q07869).
T1 sequence (Q07869 1-468): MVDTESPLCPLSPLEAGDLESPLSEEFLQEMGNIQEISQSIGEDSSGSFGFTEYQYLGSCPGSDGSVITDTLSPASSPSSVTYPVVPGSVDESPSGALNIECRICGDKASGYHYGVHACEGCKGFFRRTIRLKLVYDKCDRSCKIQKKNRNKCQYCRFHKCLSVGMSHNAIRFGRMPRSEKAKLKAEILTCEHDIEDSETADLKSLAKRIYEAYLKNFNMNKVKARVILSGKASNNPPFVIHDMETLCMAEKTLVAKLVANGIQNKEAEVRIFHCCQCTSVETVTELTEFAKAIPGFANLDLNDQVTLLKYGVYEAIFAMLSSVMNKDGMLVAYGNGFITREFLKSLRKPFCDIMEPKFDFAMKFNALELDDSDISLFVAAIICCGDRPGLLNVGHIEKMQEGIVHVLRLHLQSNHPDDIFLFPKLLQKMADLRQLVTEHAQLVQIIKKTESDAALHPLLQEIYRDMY
As to conditions: read-out: apparent Ki; cited from earlier work.

Series [8] deals with DLBCL cells. Particulars: 1-15 uM; cited from earlier work.
The test system of series [9] is PPARG-activated bladder cancer cell lines. Put plainly: Proliferation assays in PPARG-activated bladder cancer cell lines. The class given is cell-based, human. As to conditions: 100 nM-500 nM. The procedure: A panel of bladder cancer cell lines with PPARG modulators in colony formation assays was then tested (FIG. 10), kinetic proliferation assays (IncuCyte Zoom; Essen Bioscience) using cell lines treated with a single concentration of compound (100 nM-500 nM), and end-point dose-response assays (CellTiter Glo or CyQuant).
This assay was expanded to include an additional 8 representative bladder cancer cell lines, including cell lines with PPARG amplification, RXRA p.S427F mutation, activated gene signature, and control cell lines with low level expression of PPARG and target genes. […] Representative data for the UM-UC-9 cell line are shown in FIG. 6B, and is tabulated for the tested bladder cancer cell lines in Table 1. […] This significant (P<0.01) preferential sensitivity to PPARG inverse-agonists, but not antagonists, is maintained across all of the PPARG-activated cell lines in the panel, including the RXRA p.S427F cell line, HT-1197 (41), the PPARG-amplified cell lines, 5637 and UM-UC-9, and the PPARG activation gene signature cell lines Cal29, UM-UC-1, and RT112/84 (FIG. 12). […] Similar results were obtained with these cell lines in parallel studies using clonogenic assays to quantify colony-forming ability (FIG. 10).
as §1

For series [10], the system named is PPARG-activated pancreatic and colorectal cancer cell lines. The series can be described thus: Kinetic proliferation assay in pancreatic and colorectal cancer cell lines. The class given is cell-based. As to conditions: 500 nM. The source says: To enable cell-counting, cell lines were transduced with a lentiviral vector encoding nuclear-targeted GFP (TagGFP2-H2B), and stable pools generated following selection for puromycin-resistance. Cell lines were maintained for at least 7 days following selection prior to expansion and seeding into 96-well plates for further analysis. For kinetic proliferation assays, 96-well plates were imaged in phase-contrast and green fluorescence mode every two hours using IncuCyte Zoom (Essen BioScience, Ann Arbor MI). Using IncuCyte software, the number of fluorescent nuclei were counted to monitor quantitative changes in cell number over time. Media and compounds were replaced approximately every 3-4 days.
DMSO treatment was also included as a vehicle control.

The subject of series [11] is urinary bladder carcinogenesis. Particulars: rats; cited from earlier work.
The subject of series [12] is bladder cancer. Particulars: rodents; cited from earlier work.
For series [13], the target named is Terbium-labeled PPARG ligand binding domain (PPARG-LBD) (Macaca mulatta (Rhesus macaque)) (UniProt O18924). The series can be described thus: TR-FRET PPARG-NCOR1 interaction assay; with SR10221 (data not shown). In general terms: TR-FRET usually uses a lanthanide donor and a delayed reading to cut background.
Series [14] has the same target. Put plainly: TR-FRET PPARG-NCOR1 interaction assay; with T0070907 (data not shown).
Series [15] shares this target. Put plainly: TR-FRET PPARG-NCOR1 interaction assay; with GW9662 (data not shown).

On to `N.N.O=C([O-])C1(C(=O)[O-])CCC1.[Pt+2]` [Carboplatin, platinum, diammine [1,1-cyclobutane-dicarboxylato(2-)-0,0′]-(SP-4-2)], for which the “pH of a 1% solution” value in series [1] was 5-7. The solubility in water entry in [2] was “approximately 14 mg/mL”. The oral bioavailability entry in [3] is recorded as “approximately 4%”.
Regarding `O=C(Nc1ccncc1)c1cc([N+](=O)[O-])ccc1Cl` [T0070907, 2-Chloro-5-nitro-N-4-pyridinyl-benzamide], the IC50 in series [4] is 20 to 30 nM; in series [5] (Homo sapiens, UM-UC-9, read-out: calculated IC50, proliferation), 39 nM. Besides, in [5], the “effect on cell proliferation compared with DMSO control” value is “significantly reduced proliferation”. Further, the “expression of FABP4” value in [6] is given as “able to reduce expression of FABP4”. For the same molecule, in [7], the Ki was approximately 850 nM. In addition, the “growth of DLBCL cells” value in [8] is on record as “attenuate growth”. In addition, the “sensitivity of cell lines” value in series [9] and in [10] was “preferentially sensitive” each time.
Take `CN(CCOc1ccc(CC2SC(=O)NC2=O)cc1)c1ccccn1` (stereo not shown) [rosiglitazone]: the “urinary bladder carcinogenesis compared with OH-BBN alone” value in [11] is “potentiate urinary bladder carcinogenesis”. Moreover, the “carcinogenic effect, bladder cancer” value in [12] was “not”.
For DPASNLGLEDIIRKALMGSFDDK (also: fluorescently labeled, site not given here) [fluorescently labeled NCoR1 ID2 corepressor peptide (NCoR/NCOR1)], the fold induction of signal was less than 2 fold in series [13], 6 to 8 fold in [14] and 2.5 fold in [15].
